Measurements: patent US8410104B2, “Pyridazines” (Hoffmann-La Roche Inc., priority 2009, dated 2013)

Each compound was assayed against T1, human GABA A α5 receptor (α5β3γ2) (Homo sapiens, UniProt P18507+P31644) (assay: [3H]flumazenil competition binding assay, human GABA A α5β3γ2 receptors in HEK293 cells). Details: human receptors transiently transfected in HEK293; 0.5 nM [3H]flumazenil; means of two determinations; read-out: hKi GABA A α5.
T1 construct: expressed in transfected cells; host or cells: HEK293 cells, transiently transfected; membranes prepared from cell pellets
Procedure: Membrane Preparation and Binding Assay
The affinity of compounds at GABA A receptor subtypes was measured by competition for [^3H]flumazenil (85 Ci/mmol; Roche) binding to HEK293 cells expressing rat (stably transfected) or human (transiently transfected) receptors of composition α1β3γ2, α2β3γ2, α3β3γ2 and α5β3γ2.
Cell pellets were suspended in Krebs-tris buffer (4.8 mM KCl, 1.2 mM CaCl2, 1.2 mM MgCl2, 120 mM NaCl, 15 mM Tris; pH 7.5; binding assay buffer), homogenized by polytron for ca. 20 sec on ice and centrifuged for 60 min at 4° C. (50000 g; Sorvall, rotor: SM24=20000 rpm). The cell pellets were re-suspended in Krebs-tris buffer and homogenized by polytron for ca. 15 sec on ice. Protein was measured (Bradford method, Bio-Rad) and aliquots of 1 mL were prepared and stored at −80° C.
Radioligand binding assays were carried out in a volume of […] (96-well plates) which contained […] of cell membranes, [^3H]flumazenil at a concentration of 1 nM for α1, α2 and α3 subunits and 0.5 nM for α5 subunits and the test compound in the range of […]. Nonspecific binding was defined by 10^−5 M diazepam and typically represented less than 5% of the total binding. Assays were incubated to equilibrium for 1 hour at 4° C. and harvested onto GF/C uni-filters (Packard) by filtration using a Packard harvester and washing with ice-cold wash buffer (50 mM Tris; pH 7.5). After drying, filter-retained radioactivity was detected by liquid scintillation counting. Ki values were calculated using Excel-Fit (Microsoft) and are the means of two determinations.
`CCCCc1noc(C)c1COc1ccc(C(=O)NC2CCOC2)nn1` (racemic) [Example 8, Rac-6-(3-Butyl-5-methyl-isoxazol-4-ylmethoxy)-pyridazine-3-carboxylic acid (tetrahydro-furan-3-yl)-amide] gave a Ki of 6.9 nM.
For `CCCCc1noc(C)c1COc1ccc(C(=O)N[C@H]2CCOC2)nn1` [Example 6, (S)-6-(3-Butyl-5-methyl-isoxazol-4-ylmethoxy)-pyridazine-3-carboxylic acid (tetrahydro-furan-3-yl)-amide], the Ki was 8.6 nM.
For `CCCCc1noc(C)c1COc1ccc(C(=O)N[C@@H](C)CO)nn1` [Example 5, 6-(3-Butyl-5-methyl-isoxazol-4-ylmethoxy)-pyridazine-3-carboxylic acid ((S)-2-hydroxy-1-methyl-ethyl)-amide], the Ki was 17.3 nM.
`CCCCc1noc(C)c1COc1ccc(C(N)=O)nn1` [Example 9, 6-(3-Butyl-5-methyl-isoxazol-4-ylmethoxy)-pyridazine-3-carboxylic acid amide] gave a Ki of 7.3 nM.
Work on `CCCCc1noc(C)c1COc1ccc(C(=O)NCC(C)(C)O)nn1` [Example 4, 6-(3-Butyl-5-methyl-isoxazol-4-ylmethoxy)-pyridazine-3-carboxylic acid (2-hydroxy-2-methyl-propyl)-amide] yielded a Ki of 17.3 nM.
With `CCCCc1noc(C)c1COc1ccc(C(=O)NC2CCOCC2)nn1` [Example 2, 6-(3-Butyl-5-methyl-isoxazol-4-ylmethoxy)-pyridazine-3-carboxylic acid (tetrahydro-pyran-4-yl)-amide] the Ki was 16.6 nM.
With `CCCCc1noc(C)c1COc1ccc(C(=O)NC(C)C)nn1` [Example 1, 6-(3-Butyl-5-methyl-isoxazol-4-ylmethoxy)-pyridazine-3-carboxylic acid isopropylamide] the Ki was 12.8 nM.
In the case of `CCCCc1noc(C)c1COc1ccc(C(=O)NC(C)CO)nn1` (stereo not drawn) [Example 7, 6-(3-Butyl-5-methyl-isoxazol-4-ylmethoxy)-pyridazine-3-carboxylic acid (2-hydroxy-1-methyl-ethyl)-amide], the Ki is reported as 10.4 nM.
In the case of `CCCCc1noc(C)c1COc1ccc(C(=O)N[C@H](C)CO)nn1` [Example 3, 6-(3-Butyl-5-methyl-isoxazol-4-ylmethoxy)-pyridazine-3-carboxylic acid ((R)-2-hydroxy-1-methyl-ethyl)-amide], the Ki is reported as 7 nM.
